Measurements from paper PMC5630639 (Scientific Reports, 2017).

What was measured:
Assay type in all cases: cell-based, human
MGC-803 cells [1] = test: CCK-8 proliferation assay, MGC-803; settings: Homo sapiens, MGC-803; 48 h, CCK-8, mean ± SD
Description: (§1) All synthesized β-lactam-azide derivatives were evaluated for their antiproliferative activity against three cancer cell lines (MGC-803, MCF-7, A549) using CCK-8 proliferation assay. The well-known anticancer drug CA-4P was used as a control[36],[37].
(§2) MGC-803 cell line was obtained from the Chinese Academy of Sciences (Shanghai, China). MCF-7 and A549 were from the National Cell Center, China. MGC-803 cells were cultured in DMEM culture medium (DMEM, Biological Industries, Kibbutz Beit Haemek, Israel). A549 and MCF-7 cells were cultured in 1640 medium (1640, Biological Industries, Kibbutz Beit Haemek, Israel). All medium were supplemented with 10% fetal bovine serum, 100 U/ml penicillin (North China Pharmaceutical group Co.), and 100 µg/ml streptomycin (North China Pharmaceutical group Co.). All cells were cultured at 37 °C in a humidified incubator containing 5% CO2.
(§3) Synthesized analogues used in the study were dissolved in 100% cell culture grade DMSO and the final concentration of DMSO as <0.1% for testing on cancer cell lines. Cytotoxicity assays were performed on the human gastric carcinoma cell line MGC-803, the human mammary carcinoma cell line MCF-7, the human lung carcinoma cell line A549. Cells (3500–5000/well) were seeded into 96-well plates in 100 µL of culture medium. The cells were treated in triplicate with a gradient concentration of testing compounds and incubated at 37 °C, 5% CO2 for 48 h. For all cell lines, CCK-8 assay was performed to measure cytotoxic effects. The absorbance was measured using a microplate reader (BioTek Instrument, Inc. Vermont, USA) with a test wavelength of 450 nm. The absorbance levels were corrected against untreated control absorbance values. All experiments were performed in triplicate and SPSS17.0 was used for data analysis to obtain IC50 values.

MCF-7 cells = test: CCK-8 proliferation assay, MCF-7; settings: Homo sapiens, MCF7; 48 h, CCK-8, mean ± SD
Description: as §1, §2, §3

A549 cells = test: CCK-8 proliferation assay, A549; settings: Homo sapiens, A549; 48 h, CCK-8, mean ± SD
Description: as §1, §2, §3

MGC-803 cells [2] = test: Western blotting of apoptosis-related proteins; settings: concentration-dependent
Description: We next evaluated whether 28 induces apoptosis in MGC-803 cells by flow cytometry analysis of propidium iodide (PI) and Annexin V stained cells. […] When MGC-803 cells were incubated with 28 at 0.1, 0.2, and 0.3 μM for 24 h, the percentages of early apoptotic cells were 12.4%, 40.5%, and 49.7%, respectively and those of late apoptotic cells 2.1%, 10.1%, and 9.4%, respectively (Fig. 4A). Bcl-2 family proteins were crucial components of mitochondrial stress-induced cellular apoptosis. Thus, the expression of apoptosis-related proteins was also determined.
An Annexin V-FITC/PI kit (KeyGEN BioTECH, Nanjing, China) was used to detect apoptosis. Cells were seeded in 6-well plates and treated with 0, 0.1, 0.2 and 0.3 µM of 28 for 24 h. Then MGC-803 cells were collected and suspended in binding buffer containing Annexin V-FITC (0.5 mg/mL) and PI (0.5 mg/mL) and incubated in dark for 20 min and analyzed by flow cytometry (Becton, Dickinson and Company, NJ). The apoptosis related proteins of western blot analysis were conducted according to our previously reported method[31],[32].

[3] = system: interphase microtubules in MGC-803 cells; test: Immunofluorescence staining of tubulin; settings: 24 h
Description: As the microtubule system plays a vital role in the maintenance of cell shape and basic cellular functions, an immunofluorescence staining assay was performed to study whether compound 28 could disrupt the microtubule dynamics in living cells.
Cell climbing slices were sterilized and placed on the bottom of a 24-well plate for 24 h before MGC-803 cells were incubated in DMSO, different concentrations of 28 or CA-4P solutions were added. The next day the cell climbing slices were fixed by 4% paraformaldehyde for 15 min after washed by PBS for 3 times. 0.5% Triton-X-100 was added and shaked for 20 min. 0.1% BSA was used to block for 30 min and then removed. The cell climbing slices were added α-tubulin antibody (1:100) and incubated overnight at 4 °C in humid box. On the third day the humid box was taken out and balanced at 37 °C for 30 min. The cell climbing slices were washed by PBST for 3 times for each of 3 minutes and coated with FITC antibody (1:500) in a dark place for 1 h at room temperature. DAPI was used to re-stained for 5 min and then removed. The cell climbing slices were sealing by an anti-fluorescence quenching agent and images collected by Laser scanning confocal microscope (Nikon, Japan).

[4] = system: colchicine-binding site of β-tubulin; test: EBI competition assay; settings: preincubation 0.25 and 5 μM, 2 h; EBI 100 μM
Description: Six-well plates were seeded with MGC-803 cells at 5 × 10^5 cells per well. […] After 2 h, the cells were harvested and cell extracts were prepared for Western blot analysis. 20 μg of proteins was subjected to gel electrophoresis using 10% polyacrylamide gels. The proteins were transferred onto PVDF membranes, then blocked by 5% nonfatmilk for 1 h, and subsequently incubated with anti-β-tubulin antibody for 16 h at 4 °C. Next, the membranes were washed extensively and immunoreactive proteins were finally detected by chemiluminescence.

MGC-803 cells [5] = test: Cell scarification assay; settings: time-dependent and concentration-dependent
Description: (§4) In a transwell test, the average numbers of migrated cells in fields of control, 0.1 and 0.2 μM 28 treated MGC-803 cells were 29.4, 22.4 and 16.6, respectively (Fig. 6B and C). Based on the results from these tests, we next examined the protein expression of EMT-related makers such as E-cadherenin, N-cadherenin, ZO-1 and Vementin[55].
MGC-803 cells were seeded in 6-well plate until cells grew to confluence. Tips were used to make a scratch on cells. Control and 28 contained culture media without fetal bovine serum were added subsequently after 3 times of washing by PBS. Then the cells were cultured at 37 °C in a humidified incubator containing 5% CO2 and photos taken at 0, 16, 24 and 48 h, respectively.

MGC-803 cells [6] = test: Transwell cell migration assay; settings: 24 h (control 29.4)
Description: as §4
The test was performed in a transwell plate (Corning). MGC-803 cells were added to the upper chamber of a transwell plate. Control and different concentrations of 28 solutions were added to both upper and bottom chambers. Then the transwell plate was cultured at 37 °C in a humidified incubator containing 5% CO2 for 24 h. The next day, all contents in the upper chamber were removed and wiped by cotton buds. Alcohol was used to fix, and the crystal violet was used to stain the transwell for 30 min. After washed by PBS the cell chambers were observed and photos taken. The cell number of the migrated cells through the transwell was calculated by counting 5 visual fields of each group (P < 0.05)[55],[56].

MGC-803 cells [7] = test: Western blot of EMT-related markers
Description: as §4

Structure (SMILES): COc1cc(N2C(=O)[C@H](c3cccs3)[C@H]2c2cccc(N=[N+]=[N-])c2)cc(OC)c1OC (relative stereo) [Compound 28, trans-4-(3-azidophenyl)-3-(thiophen-2-yl)-1-(3,4,5-trimethoxyphenyl)azetidin-2-one]
- IC50 (MGC-803 cells [1]): 106 ± 1 nM
- IC50 (MCF-7 cells): 421 ± 47 nM
- IC50 (A549 cells): 507 ± 52 nM
- expression of Bcl-2 (MGC-803 cells [2]): decreased
- expression of cleaved caspase-3, caspase-9 and PARP (MGC-803 cells [2]): increased
- protein expression of BAX (MGC-803 cells [2]): increased
- depolymerization of interphase microtubules ([3]; 0.075 μM): moderately depolymerized
- depolymerization of interphase microtubules ([3]; 0.3 μM): much stronger
- formation of the EBI: β-tubulin adduct [4]: dose-dependently prevented the formation of the EBI: β-tubulin adduct
- distances of scratches compared to control (MGC-803 cells [5]): obviously increased
- average number of migrated cells in fields (MGC-803 cells [6]; 0.1 μM): 22.4
- average number of migrated cells in fields (MGC-803 cells [6]; 0.2 μM): 16.6
- expression of E-cadherin and ZO-1 (MGC-803 cells [7]): up-regulated
- expression of N-cadherin and vimentin (MGC-803 cells [7]): down-regulated
